Reference: EPA's ToxValDB 9.5 (doi:10.2903/j.efsa.2006.51r)
Converted amounts (≈) assume the structure as drawn.

What was measured:
[1] = system: Anas platyrhynchos
[2] = system: Apis mellifera; conditions: acute, mortality
[3] = system: Bibionidae; conditions: chronic/long-term
[4] = system: Colinus virginianus; conditions: acute; oral; diet; mortality
[5] = system: Daphnia magna; conditions: chronic/long-term; duration: 21 days; other
[6] = system: Lepomis macrochirus; conditions: acute; duration: 96 hours; mortality
[7] = system: Oncorhynchus mykiss; conditions: chronic/long-term; duration: 21 days
[8] = system: Rattus norvegicus
[9] = system: Tagia sp.
[10] = system: Typhlodromus pyri; conditions: not reported; other
[11] = system: Aphidius rhopalosiphi; experiment: LR50; higher = less toxic; conditions: not reported; other

## Cc1cc(C2CC2)nc(Nc2ccccc2)n1 [Cyprodinil]
[1]; acute, oral, unspecified, mortality
  LD50: > 500 mg/kg
[1]; reproductive
  NOEC: 64 mg/kg
[2]; duration: 48 hours, dermal
  LD50: > 784 µg/piece
[2]; oral, unspecified
  LD50: > 112 µg/piece
[3]; duration: 27 days, other
  NOEC: 80 mg/kg
[3]; duration: 28 days, no effects
  NOEC: 0.24 mg/L
[4]
  LC50: > 743 mg/kg
[5]
  NOEC: 0.0082 mg/L
[6]
  LC50: 2.17 µg/mL (≈ 9.63 µM)
[7]
  NOEC: 0.083 mg/L
[8]; acute, oral, mortality
  LD50: > 2000 mg/kg
[8]; chronic, duration: 2 years, M/F, organ weight
  NOAEL: 3 mg/kg-day
[8]; reproduction developmental, organ weight
  NOAEL: 72.7 mg/kg-day
[8]; subchronic, duration: 90 days, histopathology: nonneoplastic
  NOAEL: 3.14 mg/kg-day
[9]; acute, duration: 14 days, mortality
  LC50: 192 mg/kg
[9]; chronic/long-term, duration: 56 days, reproduction
  NOEC: 15000 g/ha
[10]
  LEL: 750 g/ha
[11]
  LR50: 750 g/ha
